Entries after “also recorded” stand apart in the source; their conditions may differ.
Columns and labels:
[1] = In vitro release of fumagillin dissolved in a lipid membrane; assay type: physicochemical; conditions: FIG. 19A
Excerpt: (§1) FIG. 19A and FIG. 19B depicts two graphs illustrating that fumagillin dissolved in a lipid membrane is stable in vitro but rapidly lost in vivo.

[2] = In vivo release of fumagillin dissolved in a lipid membrane; conditions: FIG. 19B
Excerpt: as §1

Vx2 tumor = Vx2 tumor model, angiogenesis MR contrast enhancement; assay type: in vivo, rabbit; conditions: 1.5 T, FIG. 4A

Row | Compound | In vitro release of fumagillin [1] | In vivo release of fumagillin [2] | change in angiogenesis contrast enhancement (Vx2 tumor)
1 | CO[C@@H]1[C@H](OC(=O)/C=C/C=C/C=C/C=C/C(=O)O)CC[C@]2(CO2)[C@H]1[C@@]1(C)O[C@@H]1CC=C(C)C [fumagillin] | sustained over 4 days | rapidly releases in vivo; also recorded: occurs in a matter of minutes | 
2 | CC(=O)O[C@H]1C(=O)[C@@]2(C)[C@H]([C@H](OC(=O)c3ccccc3)[C@]3(O)C[C@H](OC(=O)[C@H](O)[C@@H](NC(=O)c4ccccc4)c4ccccc4)C(C)=C1C3(C)C)[C@]1(OC(C)=O)CO[C@@H]1C[C@@H]2O [non-prodrug paclitaxel, paclitaxel] |  |  | non-significant change
